Assays:
[1] = tested on: cholesterol-fed rat; assay: Serum cholesterol lowering action in cholesterol-fed rat; format: in vivo; conditions: for Reduction % of serum cholesterol value: cholesterol-fed rat, value to control
Method: Male Splague-Dawley rats weighing 300˜500 g (Nihon SLC Co. Ltd.) were fed MF-2 chow (Nihon Crea Co. Ltd.) until study onset. At the study onset, the chow was changed to MF-2 chow containing 1% cholesterol and 0.5% cholic acid. […] Twenty hours after the last administration, blood was collected from the abdominal aorta under ether anaesthesia, and serum was separated. The cholesterol value was measured using Cholesterol E Test Wako (Wako Pure Chemical Co. Ltd.). […] The experimental 5 and 6 indicates the combined dosage examples in the present invention. Each reduction percent is shown as the value to control.
Except of the use of compound 37 instead of compound 56, quietly same experiment to pharmacological experiment 1 was carried out. Each reduction % is shown as the value to control.

[2] = alone, 0.03 mg/kg/day, once a day for 7 days
[3] = alone, 0.3 mg/kg/day, once a day for 7 days
[4] = alone, 1 mg/kg/day, once a day for 7 days
[5] = combined dosage: compound 0.3 mg/kg/day + atorvastatin 1 mg/kg/day
[6] = combined dosage: compound 0.3 mg/kg/day + atorvastatin 1 mg/kg/day, 7 days
[7] = combined dosage: compound 0.3 mg/kg/day + fenofibrate 10 mg/kg/day
[8] = combined dosage: compound 0.3 mg/kg/day + fenofibrate 10 mg/kg/day, 7 days

Compound | melting point [°C] | further results
O=C1[C@H](CC[C@H](O)c2ccc(F)cc2)[C@@H](c2ccc([C@@H]3O[C@H](CO)[C@@H](O)[C@H](O)[C@H]3O)cc2)N1c1ccccc1 [Compound 37] | 80 to 82 | Reduction % of serum cholesterol value [1, 2]: 5.6%; Reduction % of serum cholesterol value [1, 3]: 18.0%; Reduction % of serum cholesterol value [1, 4]: 31.0%; Combination effect on reduction % of serum cholesterol versus sum of agents alone [1, 5]: synergistic effect; Reduction % of serum cholesterol value [1, 6]: 31.5%; Combination effect on reduction % of serum cholesterol versus sum of agents alone [1, 7]: synergistic effect; Reduction % of serum cholesterol value [1, 8]: 39.5%
O=C1[C@H](CC[C@H](O)c2ccc(F)cc2)[C@@H](c2ccc(CC[C@@H]3O[C@H](CO)[C@@H](O)[C@H](O)[C@H]3O)cc2)N1c1ccccc1 [Compound 56] | 82 to 84 | Reduction % of serum cholesterol value [1, 2]: 1.9%; Reduction % of serum cholesterol value [1, 3]: 6.9%; Reduction % of serum cholesterol value [1, 4]: 33.5%; Combination effect on reduction % of serum cholesterol versus sum of agents alone [1, 5]: synergistic effect; Reduction % of serum cholesterol value [1, 6]: 20.2%; Combination effect on reduction % of serum cholesterol versus sum of agents alone [1, 7]: synergistic effect; Reduction % of serum cholesterol value [1, 8]: 41.3%
CC(C)c1c(C(=O)Nc2ccccc2)c(-c2ccccc2)c(-c2ccc(F)cc2)n1CC[C@@H](O)C[C@@H](O)CC(=O)O [Atorvastatin, atorvastatin, reference compound] | – | Reduction % of serum cholesterol value [1, 4]: 6.2%
O=C1[C@H](CCCc2ccc(F)cc2)[C@@H](c2ccc(C[C@@H]3O[C@H](CO)[C@@H](O)[C@H](O)[C@H]3O)cc2)N1c1ccc(F)cc1 [Compound 25] | 67 to 69 | –
CC(=O)OC[C@H]1O[C@@H](Cc2ccc([C@@H]3[C@@H](CCOc4ccc(F)cc4)C(=O)N3c3ccc(F)cc3)cc2)[C@H](OC(C)=O)[C@@H](OC(C)=O)[C@@H]1OC(C)=O [Compound 13] | 64 to 66 | –
CC(=O)OC[C@H]1O[C@@H](Cc2ccc([C@@H]3[C@@H](CCCc4ccc(F)cc4)C(=O)N3c3ccccc3)cc2)[C@H](OC(C)=O)[C@@H](OC(C)=O)[C@@H]1OC(C)=O [Compound 10] | 60 to 61 | –
O=C1[C@H](CC[C@H](O)c2ccc(F)cc2)[C@@H](c2ccc(F)cc2)N1c1ccc(C[C@@H]2O[C@H](CO)[C@@H](O)[C@H](O)[C@H]2O)cc1 [Compound 38] | 200 to 201 | –
O=C(O)c1ccc(N2C(=O)[C@H](CCCc3ccc(F)cc3)[C@H]2c2ccc(C[C@@H]3O[C@H](CO)[C@@H](O)[C@H](O)[C@H]3O)cc2)cc1 [Compound 31] | 97 to 99 | –
O=C1[C@H](CC[C@H](O)c2ccc(F)cc2)[C@@H](c2ccc(C[C@@H]3O[C@H](CO)[C@@H](O)[C@H](O)[C@H]3O)cc2)N1c1ccccc1 [Compound 23] | 104 to 106 | –
O=C1[C@H](CC[C@H](O)c2ccc(F)cc2)[C@@H](c2ccc(/C=C/CCC[C@@H]3O[C@H](CO)[C@@H](O)[C@H](O)[C@H]3O)cc2)N1c1ccc(F)cc1 [Compound 54] | 69 to 71 | –
O=C1[C@H](CCCc2ccc(F)cc2)[C@@H](c2ccc(C[C@@H]3O[C@H](CO)[C@@H](O)[C@H](O)[C@H]3O)cc2)N1c1ccc(Cl)cc1 [Compound 4] | 76 to 78 | –
O=C(CC[C@H]1C(=O)N(c2ccc(F)cc2)[C@@H]1c1ccc([C@@H]2O[C@H](CO)[C@@H](O)[C@H](O)[C@H]2O)cc1)c1ccc(F)cc1 [Compound 34] | 83 to 85 | –
CC(=O)OC[C@H]1O[C@@H](Cc2ccc([C@@H]3[C@@H](CCCc4ccc(F)cc4)C(=O)N3c3ccc(C)cc3)cc2)[C@H](OC(C)=O)[C@@H](OC(C)=O)[C@@H]1OC(C)=O [Compound 8] | 56 to 58 | –
O=C1[C@H](CC[C@H](O)c2ccc(F)cc2)[C@@H](c2ccc(CCCOC[C@@H]3O[C@H](CO)[C@@H](O)[C@H](O)[C@H]3O)cc2)N1c1ccc(F)cc1 [Compound 50] | 61 to 63 | –
O=C1[C@H](CC[C@H](O)c2ccc(F)cc2)[C@@H](c2ccc(CCC[C@@H]3O[C@H](CO)[C@@H](O)[C@H](O)[C@H]3O)cc2)N1c1ccc(F)cc1 [Compound 48] | 81 to 83 | –
O=C(CC[C@H]1C(=O)N(c2ccc(F)cc2)[C@@H]1c1ccc(C[C@@H]2O[C@H](CO)[C@@H](O)[C@H](O)[C@H]2O)cc1)c1ccc(F)cc1 [Compound 26] | 78 to 80 | –
O=C(O)c1ccc(N2C(=O)[C@H](CC[C@H](O)c3ccc(F)cc3)[C@H]2c2ccc(C[C@@H]3O[C@H](CO)[C@@H](O)[C@H](O)[C@H]3O)cc2)cc1 [Compound 29] | 148 to 150 | –
O=C(O)[C@H]1O[C@@H](CCc2ccc([C@@H]3[C@@H](CC[C@H](O)c4ccc(F)cc4)C(=O)N3c3ccccc3)cc2)[C@H](O)[C@@H](O)[C@@H]1O [Compound 58] | 110 to 112 | –
Cc1ccc(N2C(=O)[C@H](CCC(=O)c3ccc(F)cc3)[C@H]2c2ccc(C[C@@H]3O[C@H](CO)[C@@H](O)[C@H](O)[C@H]3O)cc2)cc1 [Compound 28] | 86 to 88 | –
COc1ccc(N2C(=O)[C@H](CCCc3ccc(F)cc3)[C@H]2c2ccc(C[C@@H]3O[C@H](COC(C)=O)[C@@H](OC(C)=O)[C@H](OC(C)=O)[C@H]3OC(C)=O)cc2)cc1 [Compound 6] | 60 to 62 | –
Cc1ccc(CCC[C@H]2C(=O)N(c3ccc(OC(C)(C)C(=O)O)cc3)[C@@H]2c2ccc(C[C@@H]3O[C@H](CO)[C@@H](O)[C@H](O)[C@H]3O)cc2)cc1 [Compound 21] | 161 to 162 | –
O=C1[C@H](CC[C@H](O)c2ccccc2)[C@@H](c2ccc(C[C@@H]3O[C@H](CO)[C@@H](O)[C@H](O)[C@H]3O)cc2)N1c1ccccc1 [Compound 41] | 110 to 112 | –
O=C1[C@H](CCCc2ccc(F)cc2)[C@@H](c2ccc(OC[C@@H]3O[C@H](CO)[C@@H](O)[C@H](O)[C@H]3O)cc2)N1Cc1ccccc1 [Compound 16] | 73 to 75 | –
COc1ccc(N2C(=O)[C@H](CCCc3ccc(F)cc3)[C@H]2c2ccc(C[C@@H]3O[C@H](CO)[C@@H](O)[C@H](O)[C@H]3O)cc2)cc1 [Compound 5] | 73 to 75 | –

Reference: patent publication US7795229B2, “Serum cholesterol lowering agent or preventative or therapeutic agent for atherosclerosis” (Kotobuki Pharmaceutical Co., Ltd., priority 2003, dated 2010)
